Measurements published in ChEMBL document CHEMBL1201862, “PubChem BioAssay data set” (2004).
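Tested at 5 concentrations; 48 h exposure; 96-well plates; endpoints linearly interpolated, else capped at highest concentration. Abbreviation: GI50, concentration required for 50% inhibition of growth.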 Active and inactive are the calls of the source. No stated cut-off is given here; in the data, active = GI50 up to about 1.1 µM and inactive = higher.

Key:
Test in all cases: NCI anticancer screen, dose series, 48 h
786-0 = tested on: 786-0
A498 = tested on: A498
A549 = tested on: A549
ACHN = tested on: ACHN
CAKI-1 = tested on: CAKI-1
CCRF-CEM = tested on: CCRF-CEM
COLO 205 = tested on: COLO 205
DLD-1 = tested on: DLD-1
DMS-114 = tested on: DMS-114
DMS-273 = tested on: DMS-273
EKVX = tested on: EKVX
HCC 2998 = tested on: HCC 2998
HCT-116 = tested on: HCT-116
HCT-15 = tested on: HCT-15
HL-60 = tested on: HL-60
HOP-18 = tested on: HOP-18
HOP-62 = tested on: HOP-62
HOP-92 = tested on: HOP-92
HT-29 = tested on: HT-29
IGROV-1 = tested on: IGROV-1
K562 = tested on: K562
KM-20L2 = tested on: KM-20L2
KM12 = tested on: KM12
LOX IMVI = tested on: LOX IMVI
LXFL 529 = tested on: LXFL 529
M14 = tested on: M14
M19-MEL = tested on: M19-MEL
MOLT-4 = tested on: MOLT-4
Malme-3M = tested on: Malme-3M
NCI-H226 = tested on: NCI-H226
NCI-H23 = tested on: NCI-H23
NCI-H460 = tested on: NCI-H460
NCI-H522 = tested on: NCI-H522
OVCAR-3 = tested on: OVCAR-3
OVCAR-4 = tested on: OVCAR-4
OVCAR-5 = tested on: OVCAR-5
OVCAR-8 = tested on: OVCAR-8
RPMI-8226 = tested on: RPMI-8226
RXF 393 = tested on: RXF 393
RXF 631 = tested on: RXF 631
SF-268 = tested on: SF-268
SF-295 = tested on: SF-295
SF-539 = tested on: SF-539
SK-MEL-28 = tested on: SK-MEL-28
SK-MEL-2 = tested on: SK-MEL-2
SK-MEL-5 = tested on: SK-MEL-5
SK-OV-3 = tested on: SK-OV-3
SN12C = tested on: SN12C
SNB-19 = tested on: SNB-19
SNB-75 = tested on: SNB-75
SR = tested on: SR
TK-10 = tested on: TK-10
U-251 = tested on: U-251
UACC-257 = tested on: UACC-257
UACC-62 = tested on: UACC-62
UO-31 = tested on: UO-31
XF498 = tested on: XF498

Measured: GI50

COC(=O)CCC(=O)CC(=O)C1=NS(=O)(=O)c2nc(S(N)(=O)=O)c(Cl)cc2N1
> 100 µM: HCT-15
inactive: 786-0 > 10 µM | A498 > 100 µM | A549 > 100 µM | ACHN > 100 µM | CAKI-1 > 100 µM | CCRF-CEM 45 µM | COLO 205 > 100 µM | DLD-1 > 100 µM | DMS-114 > 100 µM | DMS-273 72.3 µM | EKVX > 100 µM | HCC 2998 > 100 µM | HCT-116 > 100 µM | HL-60 > 100 µM | HOP-18 > 100 µM | HOP-62 > 100 µM | HOP-92 > 100 µM | HT-29 > 100 µM | IGROV-1 > 100 µM | K562 > 100 µM | KM-20L2 72.9 µM | KM12 > 100 µM | LOX IMVI 70.5 µM | LXFL 529 > 100 µM | M14 > 100 µM | M19-MEL > 100 µM | MOLT-4 > 100 µM | Malme-3M > 100 µM | NCI-H226 > 100 µM | NCI-H23 > 100 µM | NCI-H460 > 100 µM | NCI-H522 64.3 µM | OVCAR-3 > 100 µM | OVCAR-4 > 100 µM | OVCAR-5 > 100 µM | OVCAR-8 > 100 µM | RPMI-8226 > 100 µM | RXF 393 > 100 µM | RXF 631 > 100 µM | SF-268 > 100 µM | SF-295 > 100 µM | SF-539 > 100 µM | SK-MEL-28 > 100 µM | SK-MEL-2 > 100 µM | SK-MEL-5 > 100 µM | SK-OV-3 > 100 µM | SN12C > 100 µM | SNB-19 > 100 µM | SNB-75 > 100 µM | SR > 100 µM | TK-10 > 100 µM | U-251 > 100 µM | UACC-257 > 100 µM | UACC-62 > 100 µM | UO-31 > 100 µM | XF498 > 100 µM
